# Patent publication US5624950A, “Perhydroisoindole derivatives as substance P antagonists” (Rhone-Poulenc Rorer S.A., priority 1993, dated 1997)
# Test system: capillary permeability brought about by septide (substance P agonist)
# Test: inhibition of the increase of capillary permeability brought about by septide
# Format: in vivo
# Details: Cavia porcellus, guinea pig, septide-induced capillary permeability
# Source text: The study of certain isoindole derivatives of general formula (I) in the technique of A. Saria et al., Arch.
compound,measurement,setting,value
"COc1ccccc1[C@H](C)C(=O)N1C[C@H]2C[C@H](C)C[C@](O)(c3ccccc3OC)[C@H]2C1 (relative stereo) [Example 1, (3aR*,4R*,6S*,7aS*)-4-(2-methoxyphenyl)-2-[2-(S)-(2-methoxyphenyl)propionyl]-6-methyl-4-perhydroisoindolol]",ED50,iv,0.07 mg/kg
same,ED50,po,3 to 10 mg/kg
